{"source": "paper PMC8786932", "about": "“Bicyclic azetidines target acute and chronic stages of Toxoplasma gondii by inhibiting parasite phenylalanyl t-RNA synthetase” (Nature Communications, 2022)", "key": {"[1]": {"system": "T. gondii RHΔΔ TgPheRS[M484I] [V262A] double mutant", "assay": "Tachyzoite lytic assay, M484I_V262A double mutant", "type": "cell-based, Toxoplasma gondii", "details": "for pEC50: Toxoplasma gondii", "experimental": "In vitro cultures of HFF cells containing mature vacuoles were scraped, passaged through 23 g blunt end needles, and filtered using 3 micron filters. Purified parasites were resuspended in 350 μL of cytomix plus[49] and combined in a BTX 4 mm gap cuvette with 30 μL of PCR amplified templates corresponding to mutations of interest and 10 μg of pSAG1:Cas9-GFP U6:sgTgPheRS^[mut] (in 20 μL, 400 μL total volume, see Supplementary Data 1 for sgRNA sequences) prior to electroporation using a BTX ETM 830 electroporator. Amplified templates for TgPheRS mutations were generated from gBlocks (Integrated DNA Technologies, Coralville, IA, USA) that contain a BclI restriction site that replaces the PAM sequence to protect the repair template from being cut by Cas9. At 16 h post-transfection, transgenic parasites expressing pSAG1:Cas9-GFP were sorted on a Sony SH800 FACS sorter directly into 96-well plates. Single clones containing TgPheRS^[mut] were identified by amplifying a ~500 bp PCR fragment around introduced mutation followed by digestion using BclI (New England Biolabs) BclI sensitive clones were expanded and the locus was Sanger sequenced to verify incorporation of each independent mutation. To generate firefly luciferase (FLuc) expressing strains, freshly harvested parasites were combined with 20 μg of pTUB-FLUC DHFR flox plasmid and 10 μg of pSAG1:Cas9-GFP U6:sgUPRT[50] (in 50 μL cytomix plus) and transformed by electroporation as described above. […]\nParasite growth on HFF monolayers was monitored using a 96-well plate-based lytic assay modified from a previously described protocol. […] Plates were rinsed with water, air dried, and absorption quantified on the Cytation 3 multi-mode imager at 570 nm wavelength. % parasite growth was calculated as 100−[(OD value for infected cultures at each concentration of compound/average OD value for no compound and no parasite infection) × 100]. EC50 values were calculated based on the mean of three biological replicates with each replicate containing two technical replicates."}, "[2]": {"system": "T. gondii ME49-FLuc tissue cysts", "type": "in vivo, Ifngr1-/- mice", "experimental": "(§1) Ifngr1^−/− (B6.129S7-Ifngr1 ^tm1Agt /J) and CBA/J mice were purchased from Jackson Laboratory and bred locally at Washington University. Animal studies were conducted according to the U.S. Public Health Service policy on human care and use of laboratory animals. Animals were maintained in facilities approved by the Association for Assessment and Accreditation of Laboratory Animal Care. Studies were approved by Division of Comparative Medicine, Washington University. […] Animals were maintained on a 12:12 light cycle, room temperature maintained at 70℉ ± 2℉, and room humidity maintained at 50% ± 20%.\n(§2) Testing of compounds to prevent reactivation of chronic infection was […] to test the efficacy of PheRS inhibitors against chronic infection. In both cases, male and female C57BL/6 Ifngr1^−/− mice were infected by oral gavage with 5 cysts of the ME49-Fluc strain isolated from chronically infected CBA/J mice. […] Animals were monitored for survival and weight loss for 30 days post-treatment."}, "[3]": {"system": "T. gondii ME49-FLuc chronic infection", "type": "in vivo, Ifngr1-/- mice", "details": "for Days (survival time of single mouse) / Survival event flag of single mouse (1 or 0): Fig 6C", "experimental": "as §1, §2"}}, "note": "pEC50: −log10 of the molar value. Where “and” joins values, the source holds several entries; their conditions need not be identical. Equal entries are not always repeated. Where two headings read alike, the source gives them in different places.", "data": [{"compound": "COc1ccc(NC(=O)N2CCCCN3[C@H](CN(C)C)[C@H](c4ccc(C#Cc5ccccc5)cc4)[C@@H]3C2)cc1", "note": "[BRD7929]", "values": [{"measurement": "shift of EC50, double mutant", "setting": "[1]; M484I and V262A double mutant", "result": "only shifted the EC50 slightly more than every single mutation"}, {"measurement": "pEC50", "setting": "[1]; 72 h, read-out: EC50, M484I_V262A", "result": 6.58}, {"measurement": "pEC50", "setting": "[1]; Table S4, V262A-M484I, read-out: EC50 (growth restriction)", "result": 6.63}, {"measurement": "survival vs sulfadiazine, oral challenge model", "setting": "[2]; 10 mg/kg p.o. 20 days, P = 0.0487, Mantel-Cox", "result": "survived significantly longer than sulfadiazine mice"}, {"measurement": "mean survival", "setting": "[2]; 10 mg/kg p.o. QD for 10 days from 48 h post-challenge", "result": 16.5, "unit": "days"}, {"measurement": "mean survival", "setting": "[2]; 10 mg/kg p.o. QD for 20 days from 48 h post-challenge", "result": 21, "unit": "days"}, {"measurement": "mice in which death was prevented", "setting": "[2]; 10 mg/kg p.o. QD, 20 days", "result": "3 of 8"}, {"measurement": "animals cured by treatment, overall", "setting": "[2]; 10 day and 20 day cohorts together", "result": "4 of 16"}, {"measurement": "onset of death, reactivation model", "setting": "[3]; 10 mg/kg p.o. QD, 16 days", "result": "delayed onset of death"}, {"measurement": "survival vs vehicle, reactivation model", "setting": "[3]; 10 mg/kg p.o. once a day, 16 days, P = 0.0003, Mantel-Cox", "result": "survived significantly longer"}, {"measurement": "Days (survival of individual mice)", "setting": "[3]; 10 mg/kg, c3: 1 = death, 0 = survivor", "result": "10 days and 12 days and 24 days and 20 days and 30 days and 23 days and 22 days"}, {"measurement": "Days (survival time of single mouse)", "setting": "[3]; 10d-10 mg / kg", "result": "13 days and 29 days and 14 days and 17 days and 19 days and 16 days"}, {"measurement": "Survival event flag of single mouse (1 or 0)", "setting": "[3]; 10d-10 mg / kg", "result": "1 and 0"}, {"measurement": "Days (survival time of single mouse)", "setting": "[3]; 20d - 10 mg / kg, 10 mg/kg", "result": "29 days and 17 days and 15 days and 20 days and 19 days and 22 days"}, {"measurement": "Survival event flag of single mouse (1 or 0)", "setting": "[3]; 20d - 10 mg / kg, 10 mg/kg", "result": "0 and 1"}]}]}
